Like-named read-outs stand apart in the source and are kept apart here.

One series deals with Root-knot nematode. Conditions: in vivo.
In a further series the target is bovine cholinesterase (Bos taurus, UniProt P23795). The series is described as follows: biochemical. Type of series: biochemical.
For series [1], the system named is Southern army worm. Conditions: southern armyworm, in vivo.
The next series deals with Mexican bean beetle. Nature of the series: whole plant or invertebrate. Conditions: Epilachna varivestis; for mortality at 100 ppm / mortality at 50 ppm: read-out: Mexican Bean Beetle Larvae Mortality, %.
For a further series, the system named is House fly. Nature of the series: whole plant or invertebrate. Conditions: Musca domestica, 48 h; for mortality at 20 ppm: read-out: House Fly Spray Mortality, % (at 20 ppm); for mortality at 250 ppm: read-out: Mortality, % - House Flies.
Another series relates to Corn rootworm larvae. The series is described as follows: whole plant or invertebrate. Conditions: soil, 120 h, read-out: Corn Rootworm Larvae Mortality, % (at 2.5 ppm).
A short description of series [2]: Thermal stability of products (GC / nmr observation). Type of series: physicochemical. Conditions: for thermal stability: general statement. An excerpt:
The corresponding primary alkyl derivatives such as the S'-n-propyl compound are stable under similar conditions.
The ethyl sulfinylmethyl product was unstable at room temperature.

The subject of another series is Corn earworm. The series is described as follows: Field control of corn earworm (Example 27). Format: in vivo. Conditions: Table XV; 1 lbs/acre; untreated check 45. From the text: Spring Gold sween corn was planted on March 21. Each treatment was made on a 48 ft. row and was replicated three times. Ratings represent the total counts from all three replicates. Except for insecticide treatment the plots were managed according to recommended farming practice for the area. Application of the experimental compositions at the 1 lb. active ingredient per acre were made and readings were made to determine the number of infested corn ears.

The test system of the next series is Bollworm larvae. The series is described as follows: Bollworm test on cotton plants. Conditions: Helicoverpa zea, Table XIV, 0.5 lbs/acre. Type of series: in vivo. The procedure:
Bollworms: Bollworm larvae used in the present study were progeny of adult moths collected from light traps stationed in cotton fields. The larvae were reared on the Vanderzant-Adkisson Special Wheat Germ Diet for Insects. This diet was fortified with Vanderzant's Insect Vitamin Fortification. The diet and the vitamin fortification were obtaind from Nutritional Biochemicals Corporation, Cleveland, Ohio. The larvae were reared and tested in continuous illumination at 78±5° […]. Only third and fourth instar larvae which weighed between 25 and 60 mg. were used in the tests.
Insecticidal sprays were made by the conventional low-volume (CLV) method. CLV sprays were applied through a 6X hollow-cone nozzle calibrated to deliver the equivalent of 3.5 ga./acre of the water/emulsion spray mixture. Sprays were applied to individual cotton plants grown in one gallon buckets. After treatment the plants were allowed to dry for 1 to 2 hours in the open air before being transported to a holding room. The larvae were placed on the treated leaf surfaces and held singly in small snap-on type plastic screen cages of about 11/2 inches in diameter. Untreated control groups were maintained for each test replicate so that treatment mortalities could be adjusted according to Abbott's formula. Treatments were replicated 3 times. Each replicate contained 20 larvae. […]

The test system of series [3] is Spider mites. Nature of the series: Mite, Systemic. Format: in vivo, two-spotted mite. Conditions: Tetranychus urticae, read-out: Mortality, % - Spider Mites Systemic. The method, then: (§1) In the insecticidal and miticidal tests, the experimental compounds were tested as aqueous emulsions. These emulsions were prepared by dissolving the compound in acetone and dispersing it in distilled water with Triton X-100, an alkylaryl polyether alcohol derived by the reaction of i-octylphenol with ethylene oxide, to give spray emulsions containing the desired concentrations of the compound. These emulsions were then used in standard laboratory tests described below.
Mite, Systemic: Bean plants infested with the two-spotted mites were treated by applying 20 ml. of the formulated test chemical to the soil.

For series [4], the system named is Bean aphids. Nature of the series: Aphid, Systemic. Conditions: Aphis fabae, 48 h, read-out: Mortality, % - Bean Aphids Systemic. Format: in vivo, bean aphid. The procedure:
as §1
Aphid, Systemic: Nasturtium plants infested with the bean aphid were treated by applying 20 ml. of the formulated test chemical to the soil. The degree of aphid control was rated after 2 days.

A further series in a line: in vivo. Conditions: rat, po.
In series [5] the test system is Southern army worm. Nature of the series: whole plant or invertebrate. Conditions: Spodoptera eridania; for mortality at 50 ppm / mortality at 100 ppm: read-out: Mortality of Southern Armyworm, %; for mortality at 250 ppm: read-out: Mortality, % - Southern ArmyWorm.
For series [6], the system named is Spider mites. Nature of the series: whole plant or invertebrate. Conditions: Tetranychus urticae, 48 h, read-out: Mortality, % - Spider Mites Contact.
Series [7] has as its system Bean aphids. The series is described as follows: whole plant or invertebrate. Conditions: Aphis fabae, 48 h, read-out: Mortality, % - Bean Aphids Contact.
The next series deals with Lone Star Ticks. The series is described as follows: Animal systemic insecticide test in guinea pigs, lone star tick nymphs. Type of series: in vivo, lone star tick (host: guinea pig). Conditions: Cavia porcellus, 24 h, Table XI, read-out: Lowest Dosage (mg/kg) Causing Complete Kill of Nymphs of Lone Star Ticks. The procedure:
(§2) The experimental compounds, formulated as 5% solutions in Tween 20, were administered orally and subcutaneously to guonea pigs which have been artificially infested with nymphs of the lone star tick at 48 hours before treatment, larvae of the secondary screw worm and of the black blow fly at 24 hours before treatment. Mortality was observed 24 hours after the treatment. For the details of the techniques, reference is made to the publications of R. O. Drummond in the Journal of Economic Entomology, particularly in Vol. 60, pages 733-737 in 1967.

The next series relates to Black Blow Flies. Nature of the series: Animal systemic insecticide test in guinea pigs, black blow fly larvae. Type of series: in vivo, black blow fly (host: guinea pig). Conditions: Calliphoridae, in Cavia porcellus, 24 h, Table XI, read-out: Lowest Dosage (mg/kg) Causing Complete Kill of Larvae of Black Blow Flies. The procedure:
as §2

The test system of the next series is Secondary Screw Worms. Nature of the series: Animal systemic insecticide test in guinea pigs, secondary screw worm larvae. Conditions: Cavia porcellus, 24 h, Table XI, read-out: Lowest Dosage (mg/kg) Causing Complete Kill of Larvae of Secondary Screw Worms. Type of series: in vivo, secondary screw worm (host: guinea pig). The procedure: as §2
Setting [8] is: 24 h, read-out: Per Cent Mortality (24 hours After Application).
Where [9] appears, read: 48 h, read-out: Per Cent Mortality (48 hours After Application).
[10] abbreviates: 72 h, read-out: Per Cent Mortality (72 hours After Application).
Where [11] appears, read: read-out: Mortality, % - Mexican Bean Beetles.

Chain of bovine cholinesterase (P23795-2 with tags, fused parts or gaps limits assumed): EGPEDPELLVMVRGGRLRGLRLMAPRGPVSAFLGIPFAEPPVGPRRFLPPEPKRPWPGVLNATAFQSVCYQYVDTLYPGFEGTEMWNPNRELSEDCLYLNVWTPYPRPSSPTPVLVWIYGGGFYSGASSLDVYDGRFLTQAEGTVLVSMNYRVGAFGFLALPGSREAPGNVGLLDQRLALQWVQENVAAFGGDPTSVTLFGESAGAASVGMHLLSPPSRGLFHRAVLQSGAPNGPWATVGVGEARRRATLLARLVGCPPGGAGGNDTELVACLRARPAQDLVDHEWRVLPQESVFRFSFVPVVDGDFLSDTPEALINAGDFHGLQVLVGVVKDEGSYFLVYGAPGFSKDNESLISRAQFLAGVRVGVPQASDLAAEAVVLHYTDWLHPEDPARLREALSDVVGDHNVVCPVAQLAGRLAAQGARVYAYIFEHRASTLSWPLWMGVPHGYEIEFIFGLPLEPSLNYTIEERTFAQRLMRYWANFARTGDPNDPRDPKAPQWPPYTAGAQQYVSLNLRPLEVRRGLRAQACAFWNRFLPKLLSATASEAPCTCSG

As to `CCOP(=S)(OCC)SCSCC` [Thimet, reference compound], the “Nematodes Rate, Control after 1-4 weeks (at 25#/acre)” value (“Nematodes Rate, Control” below) in the series on Root-knot nematode is 0. On bovine cholinesterase, the IC50 worked out at 31000 nM. Moreover, the “Southern Army Worm Mortality, %” value with Southern army worm [1] is 0%. The mortality (in general, the share of the test organisms that died) at 100 ppm with Mexican bean beetle was 90%. For the same compound, the mortality at 20 ppm in the series with House fly amounted to 90%. Moreover, the mortality at 2.5 ppm in the series on Corn rootworm larvae is 100%.

Regarding `CCOP(=O)(SCC(C)C)SC[S+]([O-])CC` (stereo not drawn) [ethylsulfinylmethyl ester, O-ethyl S-isobutyl S'-ethylsulfinylmethyl dithiophosphate], the thermal stability result in series [2] is “thermal instability”.

In the case of `CCOP(=O)(SCSCC)SCC(C)C` (stereo not drawn) [Example 12, O-Ethyl S-Isobutyl S'Ethylthiomethyl Dithiophosphate], the thermal stability entry in series [2] is “thermal instability”.

In the case of `CCCSP(=O)(OCC)SCC(C)SC` (stereo not drawn) [drawing 57], in the series with Corn earworm, the “Number of Infested Corn Ears (150 Ears Sampled)” value worked out at 4.

As to `CCCSP(=O)(OCC)SCC[S+](C)[O-]` (stereo not drawn) [drawing 56], the “Number of Infested Corn Ears (150 Ears Sampled)” value with Corn earworm is reported as 0.

Turning to `CCCSP(=O)(OCC)SC[S+]([O-])CC` (stereo not drawn) [ethyl sulfinylmethyl product], the “stability (nmr)” value in series [2] (room temperature) is given as “unstable”.

`CCCSP(=O)(OCC)SCSCC` (stereo not drawn) [Example 11, O-Ethyl S-1-Propyl S'-Ethylthiomethyl Dithiophosphate]: the “Nematodes Rate, Control” value with Root-knot nematode was 100. Moreover, the IC50 against bovine cholinesterase turned out to be 2700 nM. The “stability (nmr)” value in [2] (60° C) is recorded as “slowly decomposing”. Also, the “Southern Army Worm Mortality, %” value in the series with Southern army worm [1] worked out at 100%. For the same compound, the mortality at 100 ppm in the series with Mexican bean beetle was determined as 100%. Moreover, in the series with House fly, the mortality at 20 ppm worked out at 100%. Besides, in the series with Corn rootworm larvae, the mortality at 2.5 ppm came out at 100%.

Consider `CCCSP(=O)(OCC)SCSc1ccc(Cl)cc1` (stereo not drawn) [Example 31, O-Ethyl S-1-Propyl S'-4-Chlorophenyllthiomethyl Dithiophosphate], for which, in the series with Root-knot nematode, the “Nematodes Rate, Control” value was 100. The IC50 against bovine cholinesterase is 4.1 nM. In addition, the “Southern Army Worm Mortality, %” value in the series on Southern army worm [1] was found to be 100%. Moreover, the mortality at 100 ppm in the series on Mexican bean beetle amounted to 100%. Besides, the mortality at 20 ppm with House fly came out at 100%. Further, the mortality at 2.5 ppm in the series on Corn rootworm larvae was determined as 0%.

On to `CCCSP(=O)(OCC)SCC(C)SC` (stereo not drawn) [drawing 53], for which the figures for the mortality at 560.425 g/ha with Bollworm larvae (setting [8]), in the series on Bollworm larvae (setting [9]) and with Bollworm larvae (setting [10]) were 84%, 96% and 96%, respectively.

As to `CCCSC(C)CSP(=O)(OCC)SCCC` (stereo not drawn) [drawing 54], the mortality at 560.425 g/ha in the series on Bollworm larvae (setting [8]) is 87%; in the series on Bollworm larvae (setting [9]) it was 94%; in the series on Bollworm larvae (setting [10]), 99%.

In the case of `CCCSP(=O)(OCC)SCCSCC` (stereo not drawn) [Example 30, O-Ethyl 1-Propyl S'-2-Ethylthioethyl Dithiophosphate], the mortality at 250 ppm in the series with Spider mites [3] came to 100%; in the series on Bean aphids [4] it was 90%; in the series on Southern army worm [5], 100%; in the series with Mexican bean beetle (setting [11]), 100%; in the series on Spider mites [6], 100%; in the series with Bean aphids [7], 100%. Also, the mortality at 250 ppm in the series on House fly turned out to be 100%. For the same compound, in the series on Root-knot nematode, the “Nematodes Rate, Control” value was 100. In addition, the IC50 at bovine cholinesterase (read-out: Cholinesterase Inhibiting conc. LD50, Mole/Liter, 30 min) was 1100 nM. Also, the “Southern Army Worm Mortality, %” value in the series with Southern army worm [1] is 100%. Besides, the LD50 (as a rule, the dose at which mortality reaches 50%) at 336 h in the series “in vivo” was determined as 318 mg/kg. The mortality at 50 ppm was 80% in the series with Southern army worm [5] and 100% in the series on Mexican bean beetle. The mortality at 100 ppm in the series with Southern army worm [5] came to 100%. Further, the mortality at 20 ppm with House fly came to 100%. Besides, the mortality at 2.5 ppm in the series on Corn rootworm larvae amounted to 20%.

For the compound `CCOP(=O)(SCCSCC)SC(C)(C)C` (stereo not drawn) [Example 10, O-Ethyl S-t-Butyl S'-2-Ethylthioethyl Dithiophosphate], the thermal stability entry in [2] is “thermally highly unstable”. Besides, the “thermal stability on gas chromatographic analysis” value in [2] (injector temperature of 200° C) is listed as “decomposed to yield isobutylene”. Further, in the series with Southern army worm [5], the mortality at 50 ppm was determined as 0% and the mortality at 100 ppm was found to be 0%.

With `CCOP(=S)(OCC)SCCSCC` [Disyston, reference compound], the “Nematodes Rate, Control” value in the series on Root-knot nematode came out at 0. The same compound registered an IC50 at bovine cholinesterase of 380000 nM. In addition, the “Southern Army Worm Mortality, %” value in the series with Southern army worm [1] is 0%. In “in vivo”, this compound yielded an LD50 at 336 h of 25 mg/kg. In addition, the mortality at 50 ppm in the series with Mexican bean beetle stood at 30%. In addition, the mortality at 20 ppm with House fly turned out to be 100%. For the same compound, the mortality at 2.5 ppm in the series on Corn rootworm larvae was found to be 0%.

Turning to `CCCSP(=O)(OCC)SCC[S+](C)[O-]` (stereo not drawn) [Example 6, O-Ethyl S-1-Propyl S'-2-Methylsulfinylethyl Dithiophosphate], the mortality at 250 ppm is 100% with Spider mites [3]; 100% in the series on Bean aphids [4]; 100% in the series on Southern army worm [5]; 100% with Mexican bean beetle (read-out: Mortality, % - Mexican Bean Beetle); 100% in the series with Spider mites [6]; 100% in the series with Bean aphids [7]. Also, the “Nematode Control,% at 25 lb/acre” value with Root-knot nematode turned out to be 100%. Also, the minimal effective dose with Lone Star Ticks (oral) was 50 mg/kg; with Lone Star Ticks (sc, subcutaneous), 50 mg/kg; with Black Blow Flies (oral) it was 50 mg/kg; in the series on Black Blow Flies (sc, subcutaneous), 50 mg/kg; in the series with Secondary Screw Worms (oral), 100 mg/kg; in the series with Secondary Screw Worms (sc, subcutaneous), 50 mg/kg. This compound had an LD50 at 336 h in “in vivo” of 46 mg/kg.

On to `CCCSP(=O)(OCC)SCCSc1ccccc1` (stereo not drawn) [Example 4, O-Ethyl S-1-Propyl S-2-Phenylthioethyl Dithiophosphate], for which the mortality at 250 ppm in the series on Spider mites [3] amounted to 40%; in the series on Bean aphids [4] it was 20%; in the series with Southern army worm [5], 100%; in the series on Mexican bean beetle (setting [11]), 100%; in the series on Spider mites [6], 100%; with Bean aphids [7], 95%. Moreover, the mortality at 250 ppm in the series with House fly was determined as 95%. The minimal effective dose in the series with Lone Star Ticks (oral) was above 100 mg/kg; with Lone Star Ticks (sc, subcutaneous), above 100 mg/kg; with Black Blow Flies (oral), above 100 mg/kg; in the series with Black Blow Flies (sc, subcutaneous), above 100 mg/kg; in the series on Secondary Screw Worms (oral), above 100 mg/kg; in the series with Secondary Screw Worms (sc, subcutaneous), above 100 mg/kg.

Turning to `CCCSP(=O)(OCC)SCCSC` (stereo not drawn) [drawing 52], the results for the mortality at 560.425 g/ha with Bollworm larvae (setting [8]), in the series on Bollworm larvae (setting [9]) and with Bollworm larvae (setting [10]) were 72%, 80% and 89%, respectively.

The values are drawn from patent US4075332A (priority 1976, dated 1978).
